According to USRE49579E1, “Non-peptidic GAPDH aggregation inhibitor” (University Public Corporation Osaka, priority 2015, dated 2023):
Read-outs that look alike come from different tables or passages of the source. Residues, ends and D or L forms follow the SMILES beside them. No end group written: not given here.

Experiments:
purified human GAPDH [1] = biological target: T1, purified human GAPDH (Homo sapiens, UniProt P04406); experiment: Side effects: effect on GAPDH enzymatic activity (second screening B); type: biochemical; settings: for 2nd. Screening Side effect Effect on GAPDH Activity (%) in vitro: 10 μM peptide, 0.01 μM GAPDH
T1 sequence (P04406 whole entry): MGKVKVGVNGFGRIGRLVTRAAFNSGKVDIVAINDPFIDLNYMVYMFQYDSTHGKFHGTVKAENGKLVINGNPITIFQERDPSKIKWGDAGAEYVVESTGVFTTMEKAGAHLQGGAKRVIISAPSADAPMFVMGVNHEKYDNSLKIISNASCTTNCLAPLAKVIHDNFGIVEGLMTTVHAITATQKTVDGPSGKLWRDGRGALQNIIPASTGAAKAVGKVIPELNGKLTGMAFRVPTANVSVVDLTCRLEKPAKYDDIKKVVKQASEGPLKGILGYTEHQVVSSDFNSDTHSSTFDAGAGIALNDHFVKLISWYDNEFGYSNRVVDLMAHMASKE
Method: (§1) As the second screening, A) the viability of PC12 cells in the presence of a peptide, which represented cytotoxicity, B) effects on the GAPDH enzymatic activity, which represented side effects, and C) effects on amyloid formation, which represented specificity, were each investigated.
A 10 μM peptide was added to 0.01 μM purified human GAPDH, and the enzymatic activity of GAPDH was measured in accordance with a method described in Patent Document 1.

purified human GAPDH [2] = biological target: T1, purified human GAPDH; experiment: GAPDH aggregation inhibitory activity (first screening, turbidity at 405 nm); type: biochemical; settings: for 1st. Screening Potency Inhibitory activity (%) (50 μM at 48 h) in vitro: 50 μM peptide, 5 μM GAPDH, 37° C.
Method: As the first screening, GAPDH aggregation inhibitory activities, which represents potency, were measured. According to a method described in Patent Document 1, a peptide was added to a solution in which 5 μM purified human GAPDH was dissolved in Buffer G2 so that, the concentration of the peptide was 50 μM, and then incubated at 37° C. for 48 hours. Then the aggregation inhibitory rate of GAPDH was measured using the turbidity (absorbance at 405 nm) of the solution.

PC12 cells = experiment: Cytotoxicity: viability of PC12 cells in the presence of peptide (second screening A); type: cell-based; settings: FIG. 7
Method: as §1
(§2) PC12 cells cultured to 80% confluence were cultured at 37° C. for 72 hours in the presence of 50 μM peptide, and the cell viability was measured in accordance with the conventional method.

Aβ25-35 = biological target: T2, Aβ25-35 (Homo sapiens, UniProt P05067); experiment: Specificity: effect on amyloid formation (second screening C, fluorescence); type: biochemical; settings: 25 μM amyloid β, 37° C., 1 hour
T2 construct: Aβ25-35
Method: as §1
A solution containing 25 μM […] was incubated at 37° C. for 1 hour, and formation of amyloid aggregates was evaluated using the fluorescence intensity from the solution in accordance with a method described in Patent Document 1.

Aβ40-treated PC12 cells = experiment: Cytoprotective effects on Aβ1-40 induced PC12 cell death (third screening); type: cell-based
[3] = Cytotoxicity: viability of PC12 cells in the presence of peptide (second screening A); type: cell-based; settings: rat, PC12 cells
Method: as §1, §2

stroke model mouse = experiment: Cerebroprotective effects in a stroke model (MCAO); type: in vivo; settings: 60 nmol/mouse intraventricular, FIG. 4
Method: To a stroke model mouse, 60 nmol/mouse of a peptide was intraventricularly administered, and the reduction in cerebral infarction volume and the improvement in neurological symptoms after 24 hours were determined. The stroke model mouse was prepared in accordance with a method by of Andrabi et al. (Andrabi et al., Nat Med., 2011, June; 17(6): 692-9). A mouse was maintained under the state of ischemia for 30 minutes, and then perfusion was re-started. The cerebral infarction volume was measured […] after ischemia started. Further, in accordance with the method by Andrabi et al. (supra), a neurological score was determined for neurological symptoms of the mouse to evaluate the improvement in neurological symptoms.

[4] = system: Aβ1-40 induced PC12 cell death; experiment: Protective effects on amyloid β induced cell death in the presence of GAPDH-Seeds; type: cell-based; settings: GAPDH-Seeds (1%), GAI-17 50 μM, FIG. 2
[5] = read-out: IC50 (MEAN ± S.E.) for the GAPDH aggregation inhibitory activity in vitro

| Compound | GAPDH enzymatic activity in the second screening (purified human GAPDH [1]; FIG. 7) | aggregation inhibitory activity in the first screening, compared with lead compound (purified human GAPDH [2]; FIG. 6) | IC50 (purified human GAPDH [2]; [5]) [µM] | cytotoxicity in the second screening, compared with lead compound (PC12 cells) | 2nd. Screening Side effect Effect on GAPDH Activity (%) in vitro (purified human GAPDH [1]) [%] | 2nd. Screening Specificity Effect on Aβ25-35 amyloidogenesis (%) in vitro (Aβ25-35) [%] | IC50 (purified human GAPDH [2]) [µM] | 1st. Screening Potency Inhibitory activity (%) (50 μM at 48 h) in vitro (purified human GAPDH [2]) | 3rd. Screening Effectiveness Cytoprotection (%) in Aβ40-treated PC12 cells (Aβ40-treated PC12 cells) [%] | viability at 72 h, 50 µM ([3]; 50 μM peptide, 37° C., 72 hours, read-out: 2nd. Screening Cytotoxicity Cell viability (%) in PC12 cells) [%] | cerebral infarction volume (stroke model mouse) | neurological symptoms (stroke model mouse; after 24 hours) | protective effects on amyloid β40 induced PC12 cell death [4] | viability at 72 h, 50 µM [3] [%] |
| --- | --- | --- | --- | --- | --- | --- | --- | --- | --- | --- | --- | --- | --- | --- |
| C[C@@H](O)CNC(=O)[C@H](CS)NCCCO [TN-101] | uninhibited GAPDH enzymatic activity | superior to that of the lead compound | 0.9 ± 0.11 | comparable with or smaller than those of the lead compound |  |  |  |  |  |  |  |  |  |  |
| SNASCTTNAL [GAI-1, SNASCTTNAL, reference compound] |  |  |  |  | 105 ± 1.80 | 103 ± 9.94 | 50 ± 0.2 | 53.2 ± 1.73 | 48.0 ± 3.85 | 104 ± 1.37 |  |  |  |  |
| C[C@@H](O)[C@H](NC(=O)[C@H](CS)NC(=O)[C@@H](N)CO)C(=O)O [GAI-17, SCT] (H-Ser-Cys-Thr-OH; N-terminus and C-terminus assumed) |  |  | 1.19 ± 0.15 |  | 97.9 ± 0.72 | 102 ± 6.39 |  | 97.7 ± 1.48 | 99.4 ± 1.21 |  | decrease cerebral infarction volume | improve neurological symptoms | protective effects | 100 ± 0.76 |
